# Measured values published in patent publication US11951098B2, “Therapeutic agent for meibomian dysfunction” (SANTEN PHARMACEUTICAL CO., LTD., priority 2013, dated 2024).
# How the values were obtained:
# [1] = test system: HR-AD feed fed Hos: HR-1 series hairless mouse; assay: Test using HR-AD feed fed hairless mouse; type: in vivo, Hos: HR-1 series hairless mice; conditions: for Number of obstructive orifices: among eight orifices at centre of upper eyelid
# Description: It has been known that a HR-AD feed is fed to Hos: HR-1 series hairless mouse, obstruction of the meibomian gland orifices similar to the signs/findings of MGD could be recognized (Japanese Patent Application No. 2012-137778). Thus, effects of sirolimus and deforolimus which are representative examples of the present compounds on the obstruction were investigated.
# 0.1% (w/v) sirolimus suspension: it was prepared by suspending in 0.01% (w/v) hydroxypropylmethyl cellulose.
# 0.1% (w/v) deforolimus suspension: it was prepared by suspending in 0.01% (w/v) hydroxypropylmethyl cellulose. Incidentally, deforolimus used in the present test was prepared according to the method described in JP 2005-516065A.
# Six-weeks old male Hos: HR-1 series hairless mice were grouped into 5 mice of a normal feed fed group (CRF-1 feed, available from Oriental Yeast Co., Ltd.) and 15 mice of a HR-AD feed fed group (available from Nosan Corporation), and fed the normal feed or the HR-AD feed, respectively, which were spontaneously taken. After 28th day from initiation of the feeding, the meibomian gland orifices were observed by using a slit lamp, and a number of obstructive orifices among the eight meibomian gland orifices at the center of the upper eyelid was measured. Incidentally, the presence or absence of obstruction of the meibomian gland orifices was judged by the state whether the meibomian gland orifices were in a turbid and raised or not (see JP 2014-023526A).
# Fifteen mice of the HR-AD feed fed group were grouped into a physiological saline solution-administered group, a 0.1% sirolimus suspension-administered group and a 0.1% deforolimus suspension-administered group (5 mice in each group), and from 29th day from initiation of the feeding, the physiological saline solution (2 μL/eye, twice a day), the 0.1% sirolimus suspension (2 μL/eye, twice a day) or the 0.1% (w/v) deforolimus suspension (2 μL/eye, twice a day) were dropped to the eye for 28 days. At 42nd day and 56th day after initiation of the feeding, a number of obstructions of the meibomian gland orifices was measured by using a slit lamp.
# [2] = test system: complete Freund's adjuvant administered rabbit; assay: Test using complete Freund's adjuvant administered rabbit; type: in vivo, Japanese white rabbits; conditions: average; for Score of telangiectasia: right upper eyelid, sum of three fractions
# Description: In a complete Freund's adjuvant administered rabbit, telangiectasia around the meibomian gland orifices, and obstruction at the meibomian gland orifices, which are similar to the signs/findings of MGD can be recognized. Effects of sirolimus which was a representative example of the present compound on the telangiectasia and obstruction were investigated (see JP 2014-024835A).
# 0.1% (w/v) sirolimus suspension: it was prepared by suspending in 0.01% (w/v) hydroxypropylmethyl cellulose. Incidentally, with regard to sirolimus, that purchased from LKT Laboratories, Inc., (Catalog number: R0161) was used (which is the same in the following Examples).
# 10 μL of the complete Freund's adjuvant was administered to the right upper eyelid (3 portions) of about 2 kg of male Japanese white rabbits, respectively. After 4 days from provocation, around the meibomian gland orifices of the right upper eyelid was observed by using slit lamp, a score of telangiectasia and a score of obstruction at the meibomian gland orifices were judged.
# Incidentally, with regard to the score of telangiectasia, in accordance with the criteria in the following Tables 1 and 2, the eyelid margin of the upper eyelid was equally divided to three fractions of the ear side, the center portion and the nose side, the score of telangiectasia around the meibomian gland orifices was judged with regard to the respective fractions, and the sum of the scores of the three fractions was calculated as a score per one eye. Here, the presence or absence of dilation of the capillaries was judged by the state whether the capillaries which cannot be usually recognized with naked eyes can be recognized or not as a result of dilation of the diameter of the blood vessel. Also, the presence or absence of obstruction of the meibomian gland orifices was judged by the state whether the meibomian gland orifices are in a turbid or not.
# The rabbits were grouped into a physiological saline solution-administered group and a 0.1% sirolimus suspension-administered group, and tested with 7 or 8 eyes in each group so that fluctuation of the average value of the respective scores became small. After 5th day from provocation, a physiological saline solution (50 μL/eye, twice a day) or a 0.1% sirolimus suspension (50 μL/eye, twice a day) was dropped into the right eye for 10 days. After 11th and 15th days from provocation, around the meibomian gland orifices of the right upper eyelid was observed by using a slit lamp, whereby the score of telangiectasia was judged and the number of the obstructive orifices was measured.
# [3] = 42nd day after initiation of the feeding, 0.1% (w/v) suspension 2 μL/eye twice a day from 29th day
# [4] = 56th day after initiation of the feeding, 0.1% (w/v) suspension 2 μL/eye twice a day for 28 days
# [5] = 11th day after provocation, 0.1% (w/v) suspension 50 μL/eye twice a day from 5th day
# [6] = 15th day after provocation, 0.1% (w/v) suspension 50 μL/eye twice a day for 10 days
SMILES,"Number of obstructive orifices [1, 3]","Number of obstructive orifices [1, 4]","Score of obstruction of orifices [2, 5]","Score of telangiectasia [2, 5]","Score of obstruction of orifices [2, 6]","Score of telangiectasia [2, 6]","Effect on number of the obstructions of the meibomian gland orifices (in words) ([1]; 0.1% suspension instilled, versus physiological saline group)"
"CO[C@H]1C[C@@H]2CC[C@@H](C)[C@@](O)(O2)C(=O)C(=O)N2CCCC[C@H]2C(=O)O[C@H]([C@H](C)C[C@@H]2CC[C@@H](O)[C@H](OC)C2)CC(=O)[C@H](C)/C=C(\C)[C@@H](O)[C@@H](OC)C(=O)[C@H](C)C[C@H](C)/C=C/C=C/C=C/1C [0.1% Sirolimus suspension, sirolimus]",0.7,0.0,2.3,2.1,1.3,2.1,–
"CO[C@H]1C[C@@H]2CC[C@@H](C)[C@@](O)(O2)C(=O)C(=O)N2CCCC[C@H]2C(=O)O[C@H]([C@H](C)C[C@@H]2CC[C@@H](OP(C)(C)=O)[C@H](OC)C2)CC(=O)[C@H](C)/C=C(\C)[C@@H](O)[C@@H](OC)C(=O)[C@H](C)C[C@H](C)/C=C/C=C/C=C/1C [0.1% Deforolimus suspension, deforolimus]",2.7,2.2,–,–,–,–,decreased
